Columns and labels:
A2780/DX5 cells = test: Sulforhodamine B (SRB) cytotoxicity assay in A2780/DX5 cells; type: cell-based; conditions: for IC50 Ratio: A2780/DX5 versus A2780/WT; for IC50: SRB assay
Method: (§1) Each of the testing conditions used in this study in both A2780/WT (wild-type) and A2780/DX5 cells were repeated in five to fifteen experiments that were performed on separate days. Each experiment consisted of one microtiter plate with at least eight individual assays of a given drug treatment condition on the plate. The sulforhodamine B (SRB) assay was used to assess cytotoxicity and absorbance at 570 nm (A570) in order to calculate the percentage of cell control (or percent cell survival) for the various treatment conditions in the plate wells.
(§2) Roswell Park Memorial Institute (RPMI 1640) medium, fetal bovine serum (FBS), and L-glutamine were purchased from Gibco BRL. Drugs were dissolved in sterile dimethylsulfoxide (DMSO), from American Type Culture Collection (ATCC) for stock solutions (2.5 to 5.0 mM). Subsequent dilutions were made using cell culture medium (prior to adding the drug to cells). SRB was purchased from Sigma and dissolved in 1.0% acetic acid. Trichloroacetic acid was purchased from VWR International.
(§3) Cells were manipulated in a Class IIA/B3 Biological Safety Cabinet (Forma Scientific) and maintained at 37°C in a humidified atmosphere containing 5% CO2 in a water-jacketed cell culture incubator (Forma Scientific). Cells were counted using a Coulter-Zl counter (Beckman-Coulter). Following drug treatment, plates were washed using a Biomek 2000 station (Beckman) and, following exposure to SRB dye, plates were washed using an automated plate washer (Model EL404, Bio-Tek Instruments). Percentage of control was correlated to A570 values and determined using a Model EL800 plate reader (Bio-Tek Instruments).
(§4) Population doubling times for the two cell lines used in this study encompassed a total of five cell doublings corresponding to approximately 5 days for A2780/WT and A2780/DX5 cells. A2780/WT and A2780/DX5 cells were cultured in RPMI 1640 medium supplemented with 10% fetal bovine serum and 1 mM of L-glutamine. Both cell lines were maintained as monolayered cultures in T-25 or T-75 flasks and then seeded to microtiter plate wells for experiments described herein. Prior to SRB assays, cell viability was monitored by evaluation of microtiter plate wells. Dead cells detach and float while living cells remain attached to the bottom of the cell well.
(§5) The sulforhodamine B (SRB) cytotoxicity assay (see, Skehan P, et al., New colorimetric cytotoxicity assay for anticancer-drug screening. J. Natl. Cancer Inst. 82: 1107-1112 (1990)) was used to determine the cytotoxic effects of BNP1350, SN-38, topotecan, 9-NH2-CPT, and 9-NO2-CPT on cell growth in vitro. Briefly, after the medium was aspirated from individual plate wells, trichloroacetic acid (100 µL of 10.0% solution) was added to each well, and the plates were incubated at 4°C for at least 1 hour. The plates were washed five-times with water using an automated microplate washer (Model EL 404, Bio-Tek Instruments), SRB solution (100 µL of 0.4 grams SRB dissolved in 100 mL 1.0% acetic acid) was added, and plates remained at room temperature for 15 minutes. The plates were then washed five-times using acetic acid (1.0 percent), air dried, and bound dye was solubilized in Tris base (150 µL, 10 mM). Plates were agitated (gently) for 5 minutes and the absorbance values of the SRB dye-protein adduct at a 570 nm wavelength (A570) were determined using an automated microtiter plate reader equipped with an A570 filter (Model EL800, BioTek Instruments). Table VII. Summary of Cytotoxicity Experiments in A2780/WT and DX5 Cells

[1] = tested on: A2780/WT (wild-type) cells; test: Sulforhodamine B (SRB) cytotoxicity assay in A2780/WT cells; type: cell-based
Method: as §1, §2, §3, §4, §5

[2] = over the first 48 hours, IV camptothecin sodium; cited from earlier work
human plasma proteins = test: Percent of free camptothecin analogs in human plasma (dialysis, HPLC); type: in vitro ADME; conditions: 100 nM Compound Concentrations
Method: Stocks of various camptothecin analogs were prepared in DMSO. […] Optimum HPLC detection conditions for each camptothecin analog were developed using traditional HPLC methods. Table VIII. Percent of Free Camptothecin Analogs in Human Plasma (100 nM Compound Concentrations)

[3] = tested on: Angiogenesis was induced by fibroblast growth factor; conditions: dose levels of 210 mg/kg; cited from earlier work
[4] = clinical studies in Japan alone; cited from earlier work
[5] = cited from earlier work

Row | Compound | IC50 Ratio (A2780/DX5 cells) | IC50 (A2780/DX5 cells) [µM] | IC50 [1] [µM] | Percent of Free CPTs (human plasma proteins) [%] | other results
1 | 7-(2'-Trimethylsilanyl) ethyl-10-(4-moroholinecarbonyloxy) camptothecin [Compound 12] | 2.1 | 0.135 | 0.0656 | – | –
2 | 7-(2'-Trimethylsilanyl) ethyl-10-(ethoxycarbonylmethoxyl camptothecin [Compound 9] | 1.7 | 0.123 | 0.0739 | – | –
3 | CC[C@@]1(O)C(=O)OCc2c1cc1n(c2=O)Cc2cc3ccccc3nc2-1 [CPT, (S)-4-Ethyl-4-hydroxy-1H-pyrano[3',4':6,7]indolizino[1,2-b]quinoline-3,14(4H,12H)-dione] | – | – | – | 0 | mean urine recovery of CPT [2]: 17.4%
4 | CCc1c2c(nc3ccc(OC(=O)N4CCC(N5CCCCC5)CC4)cc13)-c1cc3c(c(=O)n1C2)COC(=O)[C@]3(O)CC [CPT-11, 7-ethyl-10-[4-(1-piperidino)-1-piperidino] carbonyloxy camptothecin] | – | – | – | – | neovascularization [3]: significant reduction of neovascularization; patient deaths directly attributable to drug toxicity [4]: approximately 100
5 | CC[C@@]1(O)C(=O)OCc2c1cc1n(c2=O)Cc2c-1nc1ccc(OC)cc1c2CC[Si](C)(C)C [Compound 1, 7-(2'-Trimethylsilanyl) ethyl-10-methoxy camptothecin] | 1.3 | 0.0219 | 0.0168 | 3.5 | –
6 | CC[C@@]1(O)C(=O)OCc2c1cc1n(c2=O)Cc2c-1nc1ccc(OCOC)cc1c2CC[Si](C)(C)C [Compound 2, 7-(2'-Trimethylsilanyl) ethyl-10-methoxymethoxy camptothecin] | 1.5 | 0.0648 | 0.0434 | – | –
7 | CC[C@@]1(O)C(=O)OCc2c1cc1n(c2=O)Cc2c-1nc1ccc(OCCCO)cc1c2CC[Si](C)(C)C [Compound 3, 7-(2'-trimethylsilanyl) ethyl-10-(3'-hydroxypropoxy) camptothecin] | 2.5 | 0.0376 | 0.015 | 6.8 | –
8 | CC[C@@]1(O)C(=O)OCc2c1cc1n(c2=O)Cc2c-1nc1ccc(OCCOC)cc1c2CC[Si](C)(C)C [Compound 4, 7-(2'-Trimethylsilanyl)ethyl-10-(2'-methoxyethoxy) camptothecin] | 1.0 | 0.0706 | 0.0701 | 6 | –
9 | CC[C@@]1(O)C(=O)OCc2c1cc1n(c2=O)Cc2c-1nc1ccc(OC(C)C)cc1c2CC[Si](C)(C)C [Compound 5, 7-(2'-Trimethylsilanyl) ethyl-10-isopropoxy camptothecin] | 1.2 | 0.103 | 0.0862 | – | –
10 | CCOc1ccc2nc3c(c(CC[Si](C)(C)C)c2c1)C(O)n1c-3cc2c(c1=O)COC(=O)[C@]2(O)CC (stereo partly drawn) [Compound 6, 5-hydroxy-7-(2'-trimethylsilanyl) ethyl-10-ethoxy camptothecin] | 1.1 | 0.168 | 0.159 | – | –
11 | CC[C@@]1(O)C(=O)OCc2c1cc1n(c2=O)C(O)c2c-1nc1ccc(OCC(N)=O)cc1c2CC[Si](C)(C)C (stereo partly drawn) [Compound 7, 5-Hydroxy-7-(2'-trimethylsilanyl) ethyl-10-amidomethoxy camptothecin] | – | > 0.65 | 0.266 | – | –
12 | CC[C@@]1(O)C(=O)OCc2c1cc1n(c2=O)Cc2c-1nc1ccc(OC(=O)N(C)C)cc1c2CC[Si](C)(C)C [Compound 8, 7-(2'-trimethylsilanyl) ethyl-10-(dimethylcarbamoyloxy) camptothecin] | 1.1 | 0.0611 | 0.0548 | 6.4 | –
13 | CC[C@@]1(O)C(=O)OCc2c1cc1n(c2=O)Cc2c-1nc1ccc(OCC(N)=O)cc1c2CC[Si](C)(C)C [Compound 10, 7-(2'-Trimethylsilanyl) ethyl-10-(amidomethyloxy) camptothecin] | 11.8 | 0.401 | 0.0341 | 25 | –
14 | CC[C@@]1(O)C(=O)OCc2c1cc1n(c2=O)Cc2c-1nc1ccc(OC(=S)N(C)C)cc1c2CC[Si](C)(C)C [Compound 13] | 2.0 | 0.228 | 0.117 | – | –
15 | CCOc1ccc2nc3c(c(CC[Si](C)(C)C)c2c1)Cn1c-3cc2c(c1=O)COC(=O)[C@]2(O)CC [Compound 14, 7-(2'-Trimethylsilanyl) ethyl-10-ethoxy camptothecin] | 1.2 | 0.0172 | 0.0141 | – | –
16 | CC[C@@]1(O)C(=O)OCc2c1cc1n(c2=O)Cc2c-1nc1ccc(OCC#N)cc1c2CC[Si](C)(C)C [Compound 15, 7-(2'-Trimethylsilanyl) ethyl-10-cyanomethoxy camptothecin] | 2.0 | 0.0189 | 0.0096 | – | –
17 | CCc1c2c(nc3ccc(O)cc13)-c1cc3c(c(=O)n1C2)COC(=O)[C@]3(O)CC [SN-38, 10-hydroxy-7-ethyl camptothecin] | – | – | – | 15 | –
18 | CC[C@@]1(O)C(=O)OCc2c1cc1n(c2=O)Cc2cc3c(CN(C)C)c(O)ccc3nc2-1 [Topotecan, 9-dimethylaminomethyl-10-hydroxy camptothecin] | – | – | – | 100 | –
19 | CC[C@@](O)(C(=O)O)c1cc2n(c(=O)c1CO)Cc1cc3ccccc3nc1-2 [carboxylate form of CPT] | – | – | – | – | reduction of anti-tumor activity ([5]; carboxylate form versus lactone): at least 10 fold; anti-tumor potency relative to the non-hydrolyzed lactone form of CPT ([5]; sodium hydroxide formulation, hydrolysed E-ring): approximately one-tenth or less

From EP2197279B1, “C10-SUBSTITUTED CAMPTOTHECIN ANALOGS” (BIONUMERIK PHARMACEUTICALS, INC., priority 2007, dated 2009)
